Data taken from patent US10899709B2, “Novel-alkynyl-substituted 3-phenylpyrrolidine-2,4-diones and use thereof as herbicides” (BAYER CROPSCIENCE AKTIENGESELLSCHAFT, priority 2015, dated 2021).

Columns and labels:
Type in all cases: in vivo
[1] = tested on: Alopecurus myosuroides; experiment: Pre-emergence herbicidal effect; conditions: visual score after 3 weeks
Excerpt: (§1) Seeds of monocotyledonous and dicotyledonous weed plants and crop plants are laid out in wood-fibre pots in sandy loam and covered with soil. The compounds according to the invention formulated in the form of wettable powders (WP) or as emulsion concentrates (EC) are then applied as aqueous suspension or emulsion at a water application rate of 600 to 800 l/ha (converted) with the addition of 0.2% wetting agent to the surface of the covering soil. After the treatment, the pots are placed in a greenhouse and kept under good growth conditions for the trial plants. The damage to the test plants is scored visually after a test period of 3 weeks by comparison with untreated controls (herbicidal activity in percent (%): 100% activity=the plants have died, 0% activity=like control plants).

[2] = tested on: Avena fatua; experiment: Pre-emergence herbicidal effect; conditions: for Pre-emergence effectiveness AVEFA: visual score after 3 weeks; for Comparison data for pre-emergence effectiveness AVEFA: 20 g a.i./ha
Excerpt: as §1

[3] = tested on: Cyperus esculentus; experiment: Pre-emergence herbicidal effect; conditions: for Pre-emergence effectiveness CYPES: 320 g/ha, visual score after 3 weeks; for Comparison data for pre-emergence effectiveness CYPES: 20 g a.i./ha
Excerpt: as §1

[4] = tested on: Echinochloa crus-galli; experiment: Pre-emergence herbicidal effect; conditions: visual score after 3 weeks
Excerpt: as §1

[5] = tested on: Lolium multiflorum; experiment: Pre-emergence herbicidal effect; conditions: visual score after 3 weeks
Excerpt: as §1

[6] = tested on: Setaria viridis; experiment: Pre-emergence herbicidal effect; conditions: for Pre-emergence effectiveness SETVI: visual score after 3 weeks; for Comparison data for pre-emergence effectiveness SETVI: 20 g a.i./ha
Excerpt: as §1

[7] = tested on: Veronica persica; experiment: Pre-emergence herbicidal effect; conditions: 320 g/ha, visual score after 3 weeks
Excerpt: as §1

[8] = tested on: Alopecurus myosuroides; experiment: Post-emergence herbicidal effect; conditions: for Post-emergence effectiveness ALOMY: visual assessment after about 3 weeks
Method: (§2) Seeds of monocotyledonous and dicotyledonous weed and crop plants are laid out in sandy loam in wood-fibre pots, covered with soil and cultivated in a greenhouse under good growth conditions. 2 to 3 weeks after sowing, the test plants are treated at the one-leaf stage. The compounds according to the invention, formulated in the form of wettable powders (WP) or as emulsion concentrates (EC), are then sprayed as aqueous suspension or emulsion at a water application rate of 600 to 800 l/ha (converted) with the addition of 0.2% of wetting agent onto the green parts of the plants. After the test plants have been left to stand in the greenhouse under optimal growth conditions for about 3 weeks, the action of the preparations is assessed visually in comparison to untreated controls (herbicidal action in percent (%): 100% activity=the plants have died, 0% activity=like control plants).

[9] = tested on: Avena fatua; experiment: Post-emergence herbicidal effect; conditions: for Post-emergence effectiveness AVEFA: visual assessment after about 3 weeks
Method: as §2

[10] = tested on: Echinochloa crus-galli; experiment: Post-emergence herbicidal effect; conditions: visual assessment after about 3 weeks
Method: as §2

[11] = tested on: Lolium multiflorum; experiment: Post-emergence herbicidal effect; conditions: visual assessment after about 3 weeks
Method: as §2

[12] = tested on: Setaria viridis; experiment: Post-emergence herbicidal effect; conditions: visual assessment after about 3 weeks
Method: as §2

[13] = tested on: PHBPU; experiment: Post-emergence herbicidal effect; conditions: 20 g a.i./ha
Method: as §2

SMILES	Pre-emergence effectiveness ALOMY ([1]; 80 g/ha) [%]	Pre-emergence effectiveness ALOMY ([1]; 320 g/ha) [%]	Pre-emergence effectiveness AVEFA ([2]; 320 g/ha) [%]	Pre-emergence effectiveness CYPES [3] [%]	Pre-emergence effectiveness ECHCG ([4]; 80 g/ha) [%]	Pre-emergence effectiveness ECHCG ([4]; 320 g/ha) [%]	Pre-emergence effectiveness LOLMU ([5]; 80 g/ha) [%]	Pre-emergence effectiveness LOLMU ([5]; 320 g/ha) [%]	Pre-emergence effectiveness SETVI ([6]; 80 g/ha) [%]	Pre-emergence effectiveness SETVI ([6]; 320 g/ha) [%]	Pre-emergence effectiveness VERPE [7] [%]	Post-emergence effectiveness ALOMY ([8]; 20 g/ha) [%]	Post-emergence effectiveness ALOMY ([8]; 80 g/ha) [%]	Post-emergence effectiveness AVEFA ([9]; 80 g/ha) [%]	Post-emergence effectiveness ECHCG ([10]; 20 g/ha) [%]	Post-emergence effectiveness ECHCG ([10]; 80 g/ha) [%]	Post-emergence effectiveness LOLMU ([11]; 20 g/ha) [%]	Post-emergence effectiveness LOLMU ([11]; 80 g/ha) [%]	Post-emergence effectiveness SETVI ([12]; 20 g/ha) [%]	Post-emergence effectiveness SETVI ([12]; 80 g/ha) [%]	other results
CCc1cc(C#CC2CC2)cc(C)c1C1=C(O)C2(CCC(COC)C2)NC1=O (stereo not shown) [Example I-11]	100	100	80	100	100	100	100	100	90	100	80	80	100	100	100	100	90	100	100	100	Post-emergence effectiveness AVEFA ([9]; 20 g/ha): 80%
COCC1CCC2(CC1)NC(=O)C(c1c(C)cc(C#CC3CC3)cc1C)=C2O (stereo not shown) [Example I-8]	90	100			100	100	90	100	80	90	90	90	100	80	100	100	90	90	100	100	
CCc1cc(C#CC2CC2)cc(C)c1C1=C(OC(=O)C(C)C)C2(CCC(COC)C2)NC1=O (mixture of isomers) [Example Ia-10]	90	100		80	100	100	80	100	90	100			80		90	90	80	90	100	100	
CC#Cc1cc(C)c(C2=C(O)C3(CCC(CCOC)CC3)NC2=O)c(CC)c1 (stereo not shown) [Example I-2]	100	100	100	100	100	100	100	100	100	100	100	90	100	100	100	100	90	100	100	100	Pre-emergence effectiveness AVEFA ([2]; 80 g/ha): 80%; Post-emergence effectiveness AVEFA ([9]; 20 g/ha): 90%
CC#Cc1cc(C)c(C2=C(OC(=O)OCC)C3(CCC(COC)CC3)NC2=O)c(CC)c1 (stereo not shown) [Ia-17]																					Comparison data for pre-emergence effectiveness AVEFA [2]: 60%; Comparison data for pre-emergence effectiveness CYPES [3]: 100%; Comparison data for pre-emergence effectiveness SETVI [6]: 100%
CCOC(=O)OC1=C(c2c(C)cc(C#CC3CC3)cc2C)C(=O)NC12CCC(COC)C2 (stereo not shown) [Example Ia-2]	80	100		100	100	100		80	90	100						80				80	
CC#Cc1cc(C)c(C2=C(OC(=O)OCC)C3(CCC(OC)CC3)NC2=O)c(CC)c1 (stereo not shown) [WO 2015/040114, reference compound]																					Comparison data for pre-emergence effectiveness AVEFA [2]: 50%; Comparison data for pre-emergence effectiveness CYPES [3]: 0%; Comparison data for pre-emergence effectiveness SETVI [6]: 80%; Comparison data for post-emergence effect ALOMY ([8]; 20 g a.i./ha): 80%; Comparison data for post-emergence effect AVEFA ([9]; 20 g a.i./ha): 70%; Comparison data for post-emergence effect PHBPU [13]: 0%
CCc1cc(C#CC2CC2)cc(C)c1C1=C(OC(=O)C(C)C)C2(CCC(COC)C2)NC1=O (stereo not shown) [Example Ia-12]	100	100	90		100	100	100	100	90	100		90	90	100	100	100	90	100	100	100	Post-emergence effectiveness AVEFA ([9]; 20 g/ha): 100%
CCOC(=O)OC1=C(c2c(C)cc(C#CC3CC3)cc2CC)C(=O)N[C@]12CC[C@H](COC)C2 [Example Ia-1]	90	100	90		100	100	100	100	100	100	90		80		90	100				90	Pre-emergence effectiveness AVEFA ([2]; 80 g/ha): 80%
CC#Cc1cc(C)c(C2=C(OC(=O)OCC)C3(CCC(OCCOC)CC3)NC2=O)c(CC)c1 (stereo not shown) [Ia-14]	80	100	80	100	100	100	90	100	100	100											Pre-emergence effectiveness AVEFA ([2]; 80 g/ha): 80%
CC#Cc1cc(C)c(C2=C(OC(=O)C(C)C)C3(CCC(COC)C3)NC2=O)c(CC)c1 (stereo not shown) [Example Ia-8]	100	100	90		100	100	100	100	80	100		100	100	100	100	100	100	100	100	100	Pre-emergence effectiveness AVEFA ([2]; 80 g/ha): 90%
